Test results reported in PubChem BioAssay AID2060903 (Molecular Pharmacology Branch, DTP, NCI, 2025).

Test system: 377384-186-R-J1-PDC complex spheroid viability
Experiment: Anticancer human tumor 377384-186-R-J1-PDC patient-derived pancreatic carcinoma cell line growth inhibition [RAS]
Details: for IC50: curve of first compound; for viability, T/C: stronger effect = lower value
In short: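 Multi-cell-type spheroids: tumor cells plus HUVEC endothelial cells and mesenchymal stem cells. RAS-pathway inhibitors were combined with targeted agents, each dosed in half-log steps down from clinical Cmax, or from 10 microM when Cmax was unknown.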

[1] = second compound 0.000949 µM, first compound 0.0316 µM
[2] = second compound 0.000949 µM, first compound 0.1 µM
[3] = second compound 0.000949 µM, first compound 0.316 µM
[4] = second compound 0.000949 µM, first compound 1 µM
[5] = second compound 0.000949 µM, first compound 3.16 µM
[6] = second compound 0.000949 µM, first compound 10 µM
[7] = second compound 0.003 µM, first compound 0.0316 µM
[8] = second compound 0.003 µM, first compound 0.1 µM
[9] = second compound 0.003 µM, first compound 0.316 µM
[10] = second compound 0.003 µM, first compound 1 µM
[11] = second compound 0.003 µM, first compound 3.16 µM
[12] = second compound 0.003 µM, first compound 10 µM
[13] = second compound 0.00949 µM, first compound 0.0316 µM
[14] = second compound 0.00949 µM, first compound 0.1 µM
[15] = second compound 0.00949 µM, first compound 0.316 µM
[16] = second compound 0.00949 µM, first compound 1 µM
[17] = second compound 0.00949 µM, first compound 3.16 µM
[18] = second compound 0.00949 µM, first compound 10 µM
[19] = second compound 0.03 µM, first compound 0.0316 µM
[20] = second compound 0.03 µM, first compound 0.1 µM
[21] = second compound 0.03 µM, first compound 0.316 µM
[22] = second compound 0.03 µM, first compound 1 µM
[23] = second compound 0.03 µM, first compound 3.16 µM
[24] = second compound 0.03 µM, first compound 10 µM
[25] = second compound 0.0949 µM, first compound 0.0316 µM
[26] = second compound 0.0949 µM, first compound 0.1 µM
[27] = second compound 0.0949 µM, first compound 0.316 µM
[28] = second compound 0.0949 µM, first compound 1 µM
[29] = second compound 0.0949 µM, first compound 3.16 µM
[30] = second compound 0.0949 µM, first compound 10 µM
[31] = second compound 0.3 µM, first compound 0.0316 µM
[32] = second compound 0.3 µM, first compound 0.1 µM
[33] = second compound 0.3 µM, first compound 0.316 µM
[34] = second compound 0.3 µM, first compound 1 µM
[35] = second compound 0.3 µM, first compound 3.16 µM
[36] = second compound 0.3 µM, first compound 10 µM
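Note: spheroids exposed to compounds for seven days before readout.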

CC1(O)CCCC1n1c(=O)c(C(F)F)cc2cnc(NC3CCN(S(C)(=O)=O)CC3)nc21 (stereo not drawn) + CCn1c(-c2cccnc2C(C)OC)c2c3cc(ccc31)N1CCOC(CC(NC(=O)C(C(C)C)N(C)C(=O)C3(F)CCN(C(=O)C#CC(C)(C)N(C)C)CC3)C(=O)N3CCCC(N3)C(=O)OCC(C)(C)C2)C1 gave an IC50 (second compound 0.000949 µM) of 91.3 nM, an IC50 (second compound 0.003 µM) of 105 nM and an IC50 (second compound 0.00949 µM) of 122 nM. For the same compound, the IC50 (second compound 0.03 µM) was 111 nM, the IC50 (second compound 0.0949 µM) was 78.5 nM and the IC50 (second compound 0.3 µM) was 62.8 nM. For the same compound, the viability, T/C [1] was 79.6%, the viability, T/C [2] was 46.6% and the viability, T/C [3] was 28.9%. It also gave a viability, T/C [4] of 28.6%, a viability, T/C [5] of 35.1% and a viability, T/C [6] of 9.26%. The viability, T/C [7] was 76.8%, the viability, T/C [8] was 52.7% and the viability, T/C [9] was 28.8%. It also gave a viability, T/C [10] of 26.6%, a viability, T/C [11] of 34.8% and a viability, T/C [12] of 8.79%. It also gave a viability, T/C [13] of 84.6%, a viability, T/C [14] of 55.6% and a viability, T/C [15] of 27%. The viability, T/C [16] was 29.7%, the viability, T/C [17] was 36% and the viability, T/C [18] was 7.91%. It also gave a viability, T/C [19] of 67.4%, a viability, T/C [20] of 52.6% and a viability, T/C [21] of 24.9%. The viability, T/C [22] was 21.5%, the viability, T/C [23] was 34.7% and the viability, T/C [24] was 7.53%. It also gave a viability, T/C [25] of 71.3%, a viability, T/C [26] of 46.5% and a viability, T/C [27] of 23.9%. For the same compound, the viability, T/C [28] was 22.2%, the viability, T/C [29] was 33.4% and the viability, T/C [30] was 6.19%. The viability, T/C [31] was 68%, the viability, T/C [32] was 37.7% and the viability, T/C [33] was 18.6%. The viability, T/C [34] was 22.7%, the viability, T/C [35] was 34.7% and the viability, T/C [36] was 5.35%.

For CCC(CC)c1cc(NC2CCC(N)C2)n2nccc2n1 (stereo not drawn) + CCn1c(-c2cccnc2C(C)OC)c2c3cc(ccc31)N1CCOC(CC(NC(=O)C(C(C)C)N(C)C(=O)C3(F)CCN(C(=O)C#CC(C)(C)N(C)C)CC3)C(=O)N3CCCC(N3)C(=O)OCC(C)(C)C2)C1, the IC50 (second compound 0.000949 µM) was 1720 nM, the IC50 (second compound 0.003 µM) was 1580 nM and the IC50 (second compound 0.00949 µM) was 1600 nM. The IC50 (second compound 0.03 µM) was 1540 nM, the IC50 (second compound 0.0949 µM) was 1230 nM and the IC50 (second compound 0.3 µM) was 851 nM. It also gave a viability, T/C [1] of 101%, a viability, T/C [2] of 96.9% and a viability, T/C [3] of 115%. It also gave a viability, T/C [4] of 91.9%, a viability, T/C [5] of 2.57% and a viability, T/C [6] of 3.88%. It also gave a viability, T/C [7] of 109%, a viability, T/C [8] of 115% and a viability, T/C [9] of 108%. It also gave a viability, T/C [10] of 81%, a viability, T/C [11] of 2.93% and a viability, T/C [12] of 3.96%. For the same compound, the viability, T/C [13] was 90.4%, the viability, T/C [14] was 114% and the viability, T/C [15] was 120%. For the same compound, the viability, T/C [16] was 82.3%, the viability, T/C [17] was 3.02% and the viability, T/C [18] was 4.29%. For the same compound, the viability, T/C [19] was 104%, the viability, T/C [20] was 99% and the viability, T/C [21] was 107%. The viability, T/C [22] was 77.6%, the viability, T/C [23] was 3.09% and the viability, T/C [24] was 4.72%. For the same compound, the viability, T/C [25] was 90.8%, the viability, T/C [26] was 91.5% and the viability, T/C [27] was 95.8%. For the same compound, the viability, T/C [28] was 60.1%, the viability, T/C [29] was 3.31% and the viability, T/C [30] was 4.2%. The viability, T/C [31] was 94%, the viability, T/C [32] was 86.1% and the viability, T/C [33] was 86.3%. For the same compound, the viability, T/C [34] was 44.2%, the viability, T/C [35] was 3.73% and the viability, T/C [36] was 3.93%.

For Cc1nc(N2CCC3(CC2)COC(C)C3N)c(CO)nc1Sc1ccnc(N)c1Cl (stereo not drawn) + CCn1c(-c2cccnc2C(C)OC)c2c3cc(ccc31)N1CCOC(CC(NC(=O)C(C(C)C)N(C)C(=O)C3(F)CCN(C(=O)C#CC(C)(C)N(C)C)CC3)C(=O)N3CCCC(N3)C(=O)OCC(C)(C)C2)C1, the IC50 (second compound 0.000949 µM) was over 10000 nM, the IC50 (second compound 0.003 µM) was over 10000 nM and the IC50 (second compound 0.00949 µM) was over 10000 nM. For the same compound, the IC50 (second compound 0.03 µM) was over 10000 nM, the IC50 (second compound 0.0949 µM) was over 10000 nM and the IC50 (second compound 0.3 µM) was over 10000 nM. The viability, T/C [1] was 91.7%, the viability, T/C [2] was 84.8% and the viability, T/C [3] was 78.1%. The viability, T/C [4] was 83.8%, the viability, T/C [5] was 79.5% and the viability, T/C [6] was 78.4%. It also gave a viability, T/C [7] of 95%, a viability, T/C [8] of 97.7% and a viability, T/C [9] of 95%. It also gave a viability, T/C [10] of 84.7%, a viability, T/C [11] of 87.7% and a viability, T/C [12] of 72.6%. For the same compound, the viability, T/C [13] was 103%, the viability, T/C [14] was 74.7% and the viability, T/C [15] was 74.8%. For the same compound, the viability, T/C [16] was 75%, the viability, T/C [17] was 90% and the viability, T/C [18] was 79%. The viability, T/C [19] was 86.2%, the viability, T/C [20] was 87.3% and the viability, T/C [21] was 91%. It also gave a viability, T/C [22] of 79%, a viability, T/C [23] of 74.4% and a viability, T/C [24] of 69%. For the same compound, the viability, T/C [25] was 82.3%, the viability, T/C [26] was 84.8% and the viability, T/C [27] was 70.1%. The viability, T/C [28] was 63.3%, the viability, T/C [29] was 77.9% and the viability, T/C [30] was 71.6%. For the same compound, the viability, T/C [31] was 77.2%, the viability, T/C [32] was 72% and the viability, T/C [33] was 71%. It also gave a viability, T/C [34] of 70.9%, a viability, T/C [35] of 66.8% and a viability, T/C [36] of 61%.

With NC1c2ccccc2OC12CCN(c1cnc3c(N4CCCc5ncccc54)n[nH]c3n1)CC2 (stereo not drawn) + CCn1c(-c2cccnc2C(C)OC)c2c3cc(ccc31)N1CCOC(CC(NC(=O)C(C(C)C)N(C)C(=O)C3(F)CCN(C(=O)C#CC(C)(C)N(C)C)CC3)C(=O)N3CCCC(N3)C(=O)OCC(C)(C)C2)C1 the IC50 (second compound 0.000949 µM) was over 10000 nM, the IC50 (second compound 0.003 µM) was over 10000 nM and the IC50 (second compound 0.00949 µM) was over 10000 nM. For the same compound, the IC50 (second compound 0.03 µM) was over 10000 nM, the IC50 (second compound 0.0949 µM) was over 10000 nM and the IC50 (second compound 0.3 µM) was over 10000 nM. It also gave a viability, T/C [1] of 106%, a viability, T/C [2] of 97.5% and a viability, T/C [3] of 88.2%. For the same compound, the viability, T/C [4] was 82.3%, the viability, T/C [5] was 84.3% and the viability, T/C [6] was 84.3%. It also gave a viability, T/C [7] of 98.8%, a viability, T/C [8] of 86.1% and a viability, T/C [9] of 82.2%. It also gave a viability, T/C [10] of 79.9%, a viability, T/C [11] of 93.3% and a viability, T/C [12] of 67.4%. It also gave a viability, T/C [13] of 97.3%, a viability, T/C [14] of 84.3% and a viability, T/C [15] of 84.5%. It also gave a viability, T/C [16] of 73.8%, a viability, T/C [17] of 89.8% and a viability, T/C [18] of 76.1%. It also gave a viability, T/C [19] of 102%, a viability, T/C [20] of 84.4% and a viability, T/C [21] of 70.6%. For the same compound, the viability, T/C [22] was 86%, the viability, T/C [23] was 79.2% and the viability, T/C [24] was 68.1%. It also gave a viability, T/C [25] of 75.6%, a viability, T/C [26] of 82.6% and a viability, T/C [27] of 81%. For the same compound, the viability, T/C [28] was 69.3%, the viability, T/C [29] was 74% and the viability, T/C [30] was 71.9%. The viability, T/C [31] was 67.6%, the viability, T/C [32] was 60.1% and the viability, T/C [33] was 59.4%. For the same compound, the viability, T/C [34] was 63.1%, the viability, T/C [35] was 70.9% and the viability, T/C [36] was 59.9%.
